Organism: Rattus norvegicus
Assay: DrugMatrix - Regimen: Daily Repeat
Assay type: toxicity, organism-based, Sprague-Dawley
Design: regimen Daily Repeat, gender Male, age 6-8 weeks
Conditions: in vivo, iv, […], vehicle 100 % SALINE; for ALANINE AMINOTRANSFERASE / ALBUMIN / ALKALINE PHOSPHATASE / ASPARTATE AMINOTRANSFERASE / BLOOD UREA NITROGEN / CARBON DIOXIDE / CHLORIDE / CHOLESTEROL / CREATINE PHOSPHOKINASE / CREATININE / GLUCOSE / LACTATE DEHYDROGENASE / LIPASE / PHOSPHORUS / POTASSIUM / SODIUM / TOTAL BILIRUBIN / TOTAL PROTEIN / URIC ACID: tissue Plasma; for ABSOLUTE BASOPHIL / ABSOLUTE EOSINOPHIL / ABSOLUTE LYMPHOCYTE / ABSOLUTE MONOCYTE / ABSOLUTE SEGMENTED NEUTROPHIL / BASOPHIL / EOSINOPHIL / ERYTHROCYTE COUNT / HEMATOCRIT / HEMOGLOBIN / LEUKOCYTE COUNT / LYMPHOCYTE / MEAN CORPUSCULAR HEMOGLOBIN / MEAN CORPUSCULAR HEMOGLOBIN CONCENTRATION / MEAN CORPUSCULAR VOLUME / MONOCYTE / NEUTROPHIL / NUCLEATED RED BLOOD CELLS / PLATELET COUNT: tissue Blood
[1] = 72 h, dose 0.0033 mg/Kg, dose level Low, time 3 day
[2] = 72 h, dose 0.033 mg/Kg, dose level High, time 3 day
[3] = 120 h, dose 0.0033 mg/Kg, dose level Low, time 5 day
[4] = 120 h, dose 0.033 mg/Kg, dose level High, time 5 day

COc1cc2c3cc1Oc1cc(ccc1O)C[C@@H]1c4c(cc(OC)c(O)c4Oc4ccc(cc4)C[C@@H]3N(C)CC2)CC[N+]1(C)C.[Cl-]
ALANINE AMINOTRANSFERASE [1]: 58 u/L | ALBUMIN [1]: 4.23 G/DL | ALKALINE PHOSPHATASE [1]: 467.33 u/L | ASPARTATE AMINOTRANSFERASE [1]: 94 u/L | BLOOD UREA NITROGEN [1]: 17 mg/dL | CARBON DIOXIDE [1]: 33 mmol/L | CHLORIDE [1]: 101 MEQ/L | CHOLESTEROL [1]: 69.33 mg/dL | CREATINE PHOSPHOKINASE [1]: 839.67 u/L | CREATININE [1]: 0.22 mg/dL | GLUCOSE [1]: 165 mg/dL | LACTATE DEHYDROGENASE [1]: 138 u/L | LIPASE [1]: 8.33 u/L | PHOSPHORUS [1]: 10.83 mg/dL | POTASSIUM [1]: 5.81 MEQ/L | SODIUM [1]: 143.17 MEQ/L | TOTAL BILIRUBIN [1]: 0.2 mg/dL | TOTAL PROTEIN [1]: 5.87 G/DL | URIC ACID [1]: 0.9 mg/dL | ALANINE AMINOTRANSFERASE [2]: 56 u/L | ALBUMIN [2]: 3.97 G/DL | ALKALINE PHOSPHATASE [2]: 312.33 u/L | ASPARTATE AMINOTRANSFERASE [2]: 91.67 u/L | BLOOD UREA NITROGEN [2]: 16.33 mg/dL | CARBON DIOXIDE [2]: 28 mmol/L | CHLORIDE [2]: 101.33 MEQ/L | CHOLESTEROL [2]: 75.33 mg/dL | CREATINE PHOSPHOKINASE [2]: 431.33 u/L | CREATININE [2]: 0.2 mg/dL | GLUCOSE [2]: 169 mg/dL | LACTATE DEHYDROGENASE [2]: 240.33 u/L | LIPASE [2]: 12.67 u/L | PHOSPHORUS [2]: 11.4 mg/dL | POTASSIUM [2]: 5.83 MEQ/L | SODIUM [2]: 141.23 MEQ/L | TOTAL BILIRUBIN [2]: 0.2 mg/dL | TOTAL PROTEIN [2]: 5.67 G/DL | URIC ACID [2]: 1.5 mg/dL | ABSOLUTE BASOPHIL [3]: 0 CELLS/uL | ABSOLUTE EOSINOPHIL [3]: 0 CELLS/uL | ABSOLUTE LYMPHOCYTE [3]: 11354.67 CELLS/uL | ABSOLUTE MONOCYTE [3]: 87 CELLS/uL | ABSOLUTE SEGMENTED NEUTROPHIL [3]: 958.33 CELLS/uL | BASOPHIL [3]: 0% | EOSINOPHIL [3]: 0% | ERYTHROCYTE COUNT [3]: 5.2 x10E6/uL | HEMATOCRIT [3]: 33.13% | HEMOGLOBIN [3]: 13.43 G/DL | LEUKOCYTE COUNT [3]: 12.4 x10E3/uL | LYMPHOCYTE [3]: 91.67% | MEAN CORPUSCULAR HEMOGLOBIN [3]: 25.8 pg | MEAN CORPUSCULAR HEMOGLOBIN CONCENTRATION [3]: 40.53 G/DL | MEAN CORPUSCULAR VOLUME [3]: 63.7 fL | MONOCYTE [3]: 0.67% | NEUTROPHIL [3]: 7.67% | NUCLEATED RED BLOOD CELLS [3]: 0 /100WBC | PLATELET COUNT [3]: 1167.67 x10E3/uL | ABSOLUTE BASOPHIL [4]: 0 CELLS/uL | ABSOLUTE EOSINOPHIL [4]: 146 CELLS/uL | ABSOLUTE LYMPHOCYTE [4]: 11010.33 CELLS/uL | ABSOLUTE MONOCYTE [4]: 173 CELLS/uL | ABSOLUTE SEGMENTED NEUTROPHIL [4]: 1104 CELLS/uL | BASOPHIL [4]: 0% | EOSINOPHIL [4]: 1% | ERYTHROCYTE COUNT [4]: 5.51 x10E6/uL | HEMATOCRIT [4]: 34.03% | HEMOGLOBIN [4]: 13.57 G/DL | LEUKOCYTE COUNT [4]: 12.43 x10E3/uL | LYMPHOCYTE [4]: 88.67% | MEAN CORPUSCULAR HEMOGLOBIN [4]: 24.63 pg | MEAN CORPUSCULAR HEMOGLOBIN CONCENTRATION [4]: 39.87 G/DL | MEAN CORPUSCULAR VOLUME [4]: 61.77 fL | MONOCYTE [4]: 1.33% | NEUTROPHIL [4]: 9% | NUCLEATED RED BLOOD CELLS [4]: 0 /100WBC | PLATELET COUNT [4]: 1282.67 x10E3/uL | ALANINE AMINOTRANSFERASE [3]: 55.67 u/L | ALBUMIN [3]: 4.07 G/DL | ALKALINE PHOSPHATASE [3]: 352.67 u/L | ASPARTATE AMINOTRANSFERASE [3]: 91.67 u/L | BLOOD UREA NITROGEN [3]: 20.67 mg/dL | CARBON DIOXIDE [3]: 28 mmol/L | CHLORIDE [3]: 102.67 MEQ/L | CHOLESTEROL [3]: 72.67 mg/dL | CREATINE PHOSPHOKINASE [3]: 402.33 u/L | CREATININE [3]: 0.22 mg/dL | GLUCOSE [3]: 169 mg/dL | LACTATE DEHYDROGENASE [3]: 354.67 u/L | LIPASE [3]: 10 u/L | PHOSPHORUS [3]: 11.7 mg/dL | POTASSIUM [3]: 6.36 MEQ/L | SODIUM [3]: 144.1 MEQ/L | TOTAL BILIRUBIN [3]: 0.17 mg/dL | TOTAL PROTEIN [3]: 5.8 G/DL | URIC ACID [3]: 1.53 mg/dL | ALANINE AMINOTRANSFERASE [4]: 66.33 u/L | ALBUMIN [4]: 4.17 G/DL | ALKALINE PHOSPHATASE [4]: 366.33 u/L | ASPARTATE AMINOTRANSFERASE [4]: 97.67 u/L | BLOOD UREA NITROGEN [4]: 17.33 mg/dL | CARBON DIOXIDE [4]: 29.33 mmol/L | CHLORIDE [4]: 101.33 MEQ/L | CHOLESTEROL [4]: 68.67 mg/dL | CREATINE PHOSPHOKINASE [4]: 303.67 u/L | CREATININE [4]: 0.15 mg/dL | GLUCOSE [4]: 156.33 mg/dL | LACTATE DEHYDROGENASE [4]: 446 u/L | LIPASE [4]: 10.67 u/L | PHOSPHORUS [4]: 11.53 mg/dL | POTASSIUM [4]: 5.71 MEQ/L | SODIUM [4]: 142.9 MEQ/L | TOTAL BILIRUBIN [4]: 0.2 mg/dL | TOTAL PROTEIN [4]: 5.73 G/DL | URIC ACID [4]: 1.33 mg/dL

Source: ChEMBL document CHEMBL3885881, “DrugMatrix”
